Results published in publication PMC10945556, “Design, Synthesis, and Antifungal Activity of 3-Substituted-2(5H)-Oxaboroles” (ACS Medicinal Chemistry Letters, 2024).

test system: E. coli; assay: MIC, microbroth dilution; format: cell-based, Escherichia coli; conditions: Escherichia coli

SMILES	MIC
OB1OCC=C1c1cccc(Br)c1 [Compound 6i]	> 50 µg/mL
CC(C)(C)c1ccc(C2=CCOB2O)cc1 [Compound 6w]	> 50 µg/mL
Cc1cccc(C2=CCOB2O)c1 [Compound 6u]	> 50 µg/mL

same assay, conditions: Escherichia coli, value in parentheses

SMILES	MIC
OB1OCC=C1c1cccs1 [Compound 6s]	253 µM
OB1OCC=C1c1cccc(Br)c1 [Compound 6i]	> 210 µM
CC(C)(C)c1ccc(C2=CCOB2O)cc1 [Compound 6w]	> 232 µM
Cc1cccc(C2=CCOB2O)c1 [Compound 6u]	> 287 µM
Cc1ccc(C2=CCOB2O)cc1 [Compound 6t]	241 µM
OB1OCC=C1c1ccc(F)cc1 [Compound 6b]	236 µM

test system: A. flavus; assay: MIC, dose-dependent solid media assay; format: cell-based, Aspergillus flavus; conditions: Aspergillus flavus

SMILES	MIC
OB1OCC=C1c1cccs1 [Compound 6s]	> 50 µg/mL
OB1OCC=C1c1cccc(Br)c1 [Compound 6i]	25 µg/mL
CC(C)(C)c1ccc(C2=CCOB2O)cc1 [Compound 6w]	> 50 µg/mL
Cc1cccc(C2=CCOB2O)c1 [Compound 6u]	33 ± 8 µg/mL
Cc1ccc(C2=CCOB2O)cc1 [Compound 6t]	> 50 µg/mL
OB1OCC=C1c1ccc(F)cc1 [Compound 6b]	> 50 µg/mL

same assay, conditions: Aspergillus flavus, value in parentheses

SMILES	MIC
OB1OCC=C1c1cccs1 [Compound 6s]	> 301 µM
OB1OCC=C1c1cccc(Br)c1 [Compound 6i]	105 µM
CC(C)(C)c1ccc(C2=CCOB2O)cc1 [Compound 6w]	> 232 µM
Cc1cccc(C2=CCOB2O)c1 [Compound 6u]	190 µM
Cc1ccc(C2=CCOB2O)cc1 [Compound 6t]	> 287 µM
OB1OCC=C1c1ccc(F)cc1 [Compound 6b]	> 281 µM

test system: B. cereus; assay: MIC, microbroth dilution; format: cell-based, Bacillus cereus; conditions: Bacillus cereus

SMILES	MIC
OB1OCC=C1c1cccs1 [Compound 6s]	> 50 µg/mL
OB1OCC=C1c1cccc(Br)c1 [Compound 6i]	> 50 µg/mL
CC(C)(C)c1ccc(C2=CCOB2O)cc1 [Compound 6w]	> 50 µg/mL
Cc1cccc(C2=CCOB2O)c1 [Compound 6u]	> 50 µg/mL
Cc1ccc(C2=CCOB2O)cc1 [Compound 6t]	> 50 µg/mL
OB1OCC=C1c1ccc(F)cc1 [Compound 6b]	> 50 µg/mL

same assay, conditions: Bacillus cereus, value in parentheses

SMILES	MIC
OB1OCC=C1c1cccs1 [Compound 6s]	> 301 µM
OB1OCC=C1c1cccc(Br)c1 [Compound 6i]	> 210 µM
CC(C)(C)c1ccc(C2=CCOB2O)cc1 [Compound 6w]	> 232 µM
Cc1cccc(C2=CCOB2O)c1 [Compound 6u]	> 287 µM
Cc1ccc(C2=CCOB2O)cc1 [Compound 6t]	> 287 µM
OB1OCC=C1c1ccc(F)cc1 [Compound 6b]	> 281 µM

test system: C. albicans; assay: MIC, microbroth dilution; format: cell-based, Candida albicans; conditions: Candida albicans

SMILES	MIC
OB1OCC=C1c1cccs1 [Compound 6s]	> 50 µg/mL
OB1OCC=C1c1cccc(Br)c1 [Compound 6i]	> 50 µg/mL
CC(C)(C)c1ccc(C2=CCOB2O)cc1 [Compound 6w]	> 50 µg/mL
Cc1cccc(C2=CCOB2O)c1 [Compound 6u]	> 50 µg/mL
Cc1ccc(C2=CCOB2O)cc1 [Compound 6t]	> 50 µg/mL
OB1OCC=C1c1ccc(F)cc1 [Compound 6b]	> 50 µg/mL

same assay, conditions: Candida albicans, value in parentheses

SMILES	MIC
OB1OCC=C1c1cccs1 [Compound 6s]	> 301 µM
OB1OCC=C1c1cccc(Br)c1 [Compound 6i]	> 210 µM
CC(C)(C)c1ccc(C2=CCOB2O)cc1 [Compound 6w]	> 232 µM
Cc1cccc(C2=CCOB2O)c1 [Compound 6u]	> 287 µM
Cc1ccc(C2=CCOB2O)cc1 [Compound 6t]	> 287 µM
OB1OCC=C1c1ccc(F)cc1 [Compound 6b]	> 281 µM

test system: S. cerevisiae; assay: MIC, microbroth dilution; format: cell-based, Saccharomyces cerevisiae; conditions: Saccharomyces cerevisiae

SMILES	MIC
OB1OCC=C1c1cccs1 [Compound 6s]	10 ± 2 µg/mL
OB1OCC=C1c1cccc(Br)c1 [Compound 6i]	50 µg/mL
CC(C)(C)c1ccc(C2=CCOB2O)cc1 [Compound 6w]	> 50 µg/mL
Cc1cccc(C2=CCOB2O)c1 [Compound 6u]	21 ± 4 µg/mL
Cc1ccc(C2=CCOB2O)cc1 [Compound 6t]	10.4 ± 2 µg/mL
OB1OCC=C1c1ccc(F)cc1 [Compound 6b]	10.4 ± 2 µg/mL

same assay, conditions: Saccharomyces cerevisiae, value in parentheses

SMILES	MIC
OB1OCC=C1c1cccs1 [Compound 6s]	60.2 µM
OB1OCC=C1c1cccc(Br)c1 [Compound 6i]	210 µM
CC(C)(C)c1ccc(C2=CCOB2O)cc1 [Compound 6w]	> 232 µM
Cc1cccc(C2=CCOB2O)c1 [Compound 6u]	121 µM
Cc1ccc(C2=CCOB2O)cc1 [Compound 6t]	59.8 µM
OB1OCC=C1c1ccc(F)cc1 [Compound 6b]	58.4 µM

test system: Methicillin resistant Staphylococcus aureus; assay: MIC, microbroth dilution; format: cell-based; conditions: Staphylococcus aureus, S. aureus (MRSA)

SMILES	MIC
OB1OCC=C1c1cccs1 [Compound 6s]	> 50 µg/mL
OB1OCC=C1c1cccc(Br)c1 [Compound 6i]	> 50 µg/mL
CC(C)(C)c1ccc(C2=CCOB2O)cc1 [Compound 6w]	> 50 µg/mL
Cc1cccc(C2=CCOB2O)c1 [Compound 6u]	> 50 µg/mL
Cc1ccc(C2=CCOB2O)cc1 [Compound 6t]	> 50 µg/mL
OB1OCC=C1c1ccc(F)cc1 [Compound 6b]	> 50 µg/mL

same assay, conditions: Staphylococcus aureus, S. aureus (MRSA), value in parentheses

SMILES	MIC
OB1OCC=C1c1cccs1 [Compound 6s]	> 301 µM
OB1OCC=C1c1cccc(Br)c1 [Compound 6i]	> 210 µM
CC(C)(C)c1ccc(C2=CCOB2O)cc1 [Compound 6w]	> 232 µM
Cc1cccc(C2=CCOB2O)c1 [Compound 6u]	> 287 µM
Cc1ccc(C2=CCOB2O)cc1 [Compound 6t]	> 287 µM
OB1OCC=C1c1ccc(F)cc1 [Compound 6b]	> 281 µM

test system: E. coli; assay: Growth inhibition screen in liquid medium; format: cell-based, Escherichia coli; conditions: screen at 50 and 12.5 μg/mL
From the text: These included four bacterial pathogens [Bacillus cereus (Gram-positive), Methicillin resistant Staphylococcus aureus (Gram-positive), Pseudomonas aeruginosa (Gram-negative), and Escherichia coli (Gram-negative)], a fungal pathogen (Candida albicans), and a yeast (Saccharomyces cerevisiae). […] Commercially available tavaborole, cycloheximide, and nystatin were also screened as benchmarks. […] In addition, the 3-substituted oxaboroles were screened in a dose-dependent manner on solid media against three spore-forming fungal pathogens: Trichophyton mentagrophytes, Penicillium chrysogenum, and Aspergillus flavus (Figures 2B and S152–S192). The compounds could not be screened for growth inhibition in liquid media against these pathogens due to clumping of the mycelia, which impeded the absorbance readings.

SMILES	growth inhibition of E. coli
OB1OCC=C1c1cccs1 [Compound 6s]	inhibited the growth
Cc1ccc(C2=CCOB2O)cc1 [Compound 6t]	inhibited the growth
OB1OCC=C1c1ccc(F)cc1 [Compound 6b]	inhibited the growth

test system: P. aeruginosa; assay: MIC, microbroth dilution; format: cell-based, Pseudomonas aeruginosa; conditions: Pseudomonas aeruginosa

SMILES	MIC
OB1OCC=C1c1cccs1 [Compound 6s]	> 50 µg/mL
OB1OCC=C1c1cccc(Br)c1 [Compound 6i]	> 50 µg/mL
CC(C)(C)c1ccc(C2=CCOB2O)cc1 [Compound 6w]	> 50 µg/mL
Cc1cccc(C2=CCOB2O)c1 [Compound 6u]	> 50 µg/mL
Cc1ccc(C2=CCOB2O)cc1 [Compound 6t]	> 50 µg/mL
OB1OCC=C1c1ccc(F)cc1 [Compound 6b]	> 50 µg/mL

same assay, conditions: Pseudomonas aeruginosa, value in parentheses

SMILES	MIC
OB1OCC=C1c1cccs1 [Compound 6s]	> 301 µM
OB1OCC=C1c1cccc(Br)c1 [Compound 6i]	> 210 µM
CC(C)(C)c1ccc(C2=CCOB2O)cc1 [Compound 6w]	> 232 µM
Cc1cccc(C2=CCOB2O)c1 [Compound 6u]	> 287 µM
Cc1ccc(C2=CCOB2O)cc1 [Compound 6t]	> 287 µM
OB1OCC=C1c1ccc(F)cc1 [Compound 6b]	> 281 µM

test system: rat myoblast cells (H9c2); assay: Cell viability assay against H9c2 cell line; format: cell-based; conditions: concentrations up to 100 μM, 24 h
Description: (§1) In general, very little growth inhibition was observed against either Gram-positive or Gram-negative bacterial pathogens. […] The SAR for the antibacterial is dissimilar to that observed for the antifungal properties.
(§2) Figure 3 (A) Cell viability assay against H9c2 cell line at 100 μM for 24 h (normalized to PBS no treatment), (B) Hemolytic assay at 50 and 100 μM for 1 h (normalized to triton X-100 positive control). Error bars in both graphs represent standard error of mean (SEM) of replicates (n = 3).

SMILES	cytotoxic effects against rat myoblast cells (H9c2)
OB1OCC=C1c1cccc(Br)c1 [Compound 6i]	none
CC(C)(C)c1ccc(C2=CCOB2O)cc1 [Compound 6w]	none
Cc1cccc(C2=CCOB2O)c1 [Compound 6u]	none
Cc1ccc(C2=CCOB2O)cc1 [Compound 6t]	none

test system: P. chrysogenum; assay: MIC, dose-dependent solid media assay; format: cell-based, Penicillium chrysogenum; conditions: Penicillium chrysogenum

SMILES	MIC
OB1OCC=C1c1cccs1 [Compound 6s]	50 µg/mL
OB1OCC=C1c1cccc(Br)c1 [Compound 6i]	10.4 ± 2 µg/mL
CC(C)(C)c1ccc(C2=CCOB2O)cc1 [Compound 6w]	12.5 µg/mL
Cc1cccc(C2=CCOB2O)c1 [Compound 6u]	25 µg/mL
Cc1ccc(C2=CCOB2O)cc1 [Compound 6t]	21 ± 4 µg/mL
OB1OCC=C1c1ccc(F)cc1 [Compound 6b]	25 µg/mL

same assay, conditions: Penicillium chrysogenum, value in parentheses

SMILES	MIC
OB1OCC=C1c1cccs1 [Compound 6s]	301 µM
OB1OCC=C1c1cccc(Br)c1 [Compound 6i]	43.7 µM
CC(C)(C)c1ccc(C2=CCOB2O)cc1 [Compound 6w]	57.9 µM
Cc1cccc(C2=CCOB2O)c1 [Compound 6u]	144 µM
Cc1ccc(C2=CCOB2O)cc1 [Compound 6t]	121 µM
OB1OCC=C1c1ccc(F)cc1 [Compound 6b]	140 µM

test system: not listed separately; assay: Hemolytic assay; format: cell-based; conditions: 50 and 100 μM for 1 h
Description: as §1, §2

SMILES	hemolytic activity
OB1OCC=C1c1cccc(Br)c1 [Compound 6i]	none possessed hemolytic activity
CC(C)(C)c1ccc(C2=CCOB2O)cc1 [Compound 6w]	none possessed hemolytic activity
Cc1cccc(C2=CCOB2O)c1 [Compound 6u]	none possessed hemolytic activity
Cc1ccc(C2=CCOB2O)cc1 [Compound 6t]	none possessed hemolytic activity

test system: T. mentagrophytes; assay: MIC, dose-dependent solid media assay; format: cell-based, Trichophyton mentagrophytes; conditions: Trichophyton mentagrophytes

SMILES	MIC
OB1OCC=C1c1cccs1 [Compound 6s]	> 50 µg/mL
OB1OCC=C1c1cccc(Br)c1 [Compound 6i]	25 µg/mL
CC(C)(C)c1ccc(C2=CCOB2O)cc1 [Compound 6w]	> 50 µg/mL
Cc1cccc(C2=CCOB2O)c1 [Compound 6u]	42 ± 8 µg/mL
Cc1ccc(C2=CCOB2O)cc1 [Compound 6t]	> 50 µg/mL
OB1OCC=C1c1ccc(F)cc1 [Compound 6b]	> 50 µg/mL

same assay, conditions: Trichophyton mentagrophytes, value in parentheses

SMILES	MIC
OB1OCC=C1c1cccs1 [Compound 6s]	> 301 µM
OB1OCC=C1c1cccc(Br)c1 [Compound 6i]	105 µM
CC(C)(C)c1ccc(C2=CCOB2O)cc1 [Compound 6w]	> 232 µM
Cc1cccc(C2=CCOB2O)c1 [Compound 6u]	241 µM
Cc1ccc(C2=CCOB2O)cc1 [Compound 6t]	> 287 µM
OB1OCC=C1c1ccc(F)cc1 [Compound 6b]	> 281 µM
